Laboratory results from US10941157B2, “Pesticidal compositions and uses thereof” (Gilead Apollo, LLC, priority 2015, dated 2021).
Converted amounts (≈) assume the structure as drawn.

Columns and labels:
Phakopsora pachyrhizi = test: Foliar protection test for Asian soybean rust control; format: in vivo; conditions: foliar application to soybean (Glycine max AG4832), percent disease area evaluated 14 days later
[1] = system: Mycosphaerella graminicola (synthetic Septoria tritici); test: Foliar protection test for wheat septoria leaf blotch control; format: in vivo; conditions: foliar spray on Triticum aestivum cv. WinterHawk, inoculated 1 hour after treatment, evaluated 16 days later
Fusarium graminearum = format: in vivo; conditions: spray on flowering Triticum aestivum cv. Samson, inoculated 24 hours after treatment, evaluated 14 days later
Puccinia triticina = test: Foliar protection test for wheat leaf rust control; format: in vivo; conditions: foliar application to wheat (Triticum aestivum cv. Winterhawk), evaluated 10 days later
[2] = system: Fusarium virguliforme (Fv); test: In vitro pathogen growth inhibition assay, Fv; format: cell-based; conditions: ≥90% growth inhibition, 48 hours, vs 2% DMSO control, read-out: Compound Concentration (ppm) sufficient for ≥90% inhibition of Fv
Method in brief: (§1)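 Value reported is the compound concentration reaching ≥90% growth inhibition, from OD readings at 24 and 48 h after blank subtraction, confirmed visually. Inoculum was spores diluted in 17% V8 medium, except Rs, using 1.5 mm mycelial plugs in ¼ PDB; actual compound concentration corrected via OD600.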

[3] = system: Collectotrichum graminicola (Cg); test: In vitro pathogen growth inhibition assay, Cg; format: cell-based; conditions: 48 h, ≥90% growth inhibition; 48 hours; vs 2% DMSO control; read-out: Compound Concentration (ppm) sufficient for ≥90% inhibition of Cg
Method in brief: as §1

Botrtyis cinerea (Bc) = test: In vitro pathogen growth inhibition assay, Bc; format: cell-based; conditions: 48 h, ≥90% growth inhibition; 48 hours; vs 2% DMSO control; read-out: Compound Concentration (ppm) sufficient for ≥90% inhibition of Bc
Method in brief: as §1

Rhizoctonia solani (Rs) = test: In vitro pathogen growth inhibition assay, Rs (mycelial plugs); format: cell-based; conditions: Rhizoctonia solani, 48 h, ≥90% growth inhibition; mycelial plugs; 48 hours; vs 2% DMSO control; read-out: Compound Concentration (ppm) sufficient for ≥90% inhibition of Rs
Method in brief: as §1

Diplodia maydis (Dm) = test: In vitro pathogen growth inhibition assay, Dm; format: cell-based; conditions: Stenocarpella maydis, 48 h, ≥90% growth inhibition; 48 hours; vs 2% DMSO control; read-out: Compound Concentration (ppm) sufficient for ≥90% inhibition of Dm
Method in brief: as §1

[4] = system: Fusarium moniliforme (Fm); test: In vitro pathogen growth inhibition assay, Fm; format: cell-based; conditions: Fusarium verticillioides; ≥90% growth inhibition; 48 hours; vs 2% DMSO control; read-out: Compound Concentration (ppm) sufficient for ≥90% inhibition of Fm
Method in brief: as §1

[5] = system: Blumeria graminis f. sp. hordei; test: Foliar protection test for barley powdery mildew control; format: in vivo; conditions: foliar spray on Hordeum vulgare cv. Perry, inoculated 24 hours after treatment, evaluated 7 days later
Method in brief: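 Protective foliar test: compound atomized onto both leaf surfaces of 6-day-old Hordeum vulgare cv. Perry, followed after 24 h by spore-cloud inoculation from colonized untreated plants. Disease rated on leaves 7 days on, plants held at 20 to 22° C and 70% RH.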

Sphaerotheca fuliginea = test: Foliar protection for cucumber powdery mildew control; format: in vivo; conditions: foliar spray on Cucumis sativus cv. Straight Eight, inoculated 24 hours after treatment, evaluated 7 days later
Method in brief: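 Protective foliar spray on 10-day-old Straight Eight cucumbers, with S. fuliginea spores dusted from infected stock plants 24 h after treatment. Disease developed at 23–27 °C, 60% RH and a 16 h photoperiod. Leaves were rated for mildew growth after 7 days; test rates 10 ppm or below.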

Septoria tritici (St) = test: In vitro pathogen growth inhibition assay, St; format: cell-based; conditions: Zymoseptoria tritici, 48 h, ≥90% growth inhibition; 48 hours; vs 2% DMSO control; read-out: Compound Concentration (ppm) sufficient for ≥90% inhibition of St
Method in brief: as §1

[6] = system: Phytophthora capsici (Pc); test: In vitro pathogen growth inhibition assay, Pc; format: cell-based; conditions: 48 h, ≥90% growth inhibition, 48 hours, vs 2% DMSO control, read-out: Compound Concentration (ppm) sufficient for ≥90% inhibition of Pc
Method in brief: as §1

SMILES | Asian Soybean Rust Control at a compound concentration of 25 ppm or lower (Phakopsora pachyrhizi) | Septoria Leaf Blotch Control at a compound concentration of 25 ppm or lower [1] | Wheat Fusarium Head Blight Control at a compound concentration of 25 ppm or lower (Fusarium graminearum) | Wheat Leaf Rust Control at a compound concentration of 10 ppm or lower (Puccinia triticina) | IC90 [2] | IC90 [3] | IC90 (Botrtyis cinerea (Bc)) | IC90 (Rhizoctonia solani (Rs)) | IC90 (Diplodia maydis (Dm)) | IC90 [4] | Barley Powdery Mildew Control at a compound concentration of 10 ppm or lower [5] | Cucumber Powdery Mildew Control at a compound concentration of 10 ppm or lower (Sphaerotheca fuliginea) | IC90 (Septoria tritici (St)) | IC90 [6]
COc1ccc(F)cc1[C@@](C)(Cn1c(=O)n(C(C)(C)C(=O)NC(C)C)c(=O)c2c(C)c(-n3nccn3)sc21)OCCC#N [Compound I-274, (S)-2-(1-(2-(2-cyanoethoxy)-2-(5-fluoro-2-methoxyphenyl)propyl)-5-methyl-2,4-dioxo-6-(2H-1,2,3-triazol-2-yl)-1,4-dihydrothieno[2,3-d]pyrimidin-3 (2H)-yl)-N-isopropyl-2-methylpropanamide] | A (from 70% to 84% control of Asian soybean rust) | AA (≥85% control of wheat septoria leaf blotch) | C (from 25 to 49% control of wheat fusarium head blight) | AA (≥85% control of wheat leaf rust) | 0.4 µg/mL (≈ 0.654 µM) | 0.08 µg/mL (≈ 0.131 µM) | 0.4 µg/mL (≈ 0.654 µM) | 0.08 µg/mL (≈ 0.131 µM) | 0.4 µg/mL (≈ 0.654 µM) | 0.08 µg/mL (≈ 0.131 µM) | AA (≥85% control of barley powdery mildew) | AA (≥85% control of cucumber powdery mildew) | > 50 µg/mL | 2 µg/mL (≈ 3.27 µM)
CCc1ccc(F)cc1[C@H](Cn1c(=O)n(C(C)(C)C(=O)NC(C)C)c(=O)c2c(C)c(-n3nccn3)sc21)OC[C@@H](C)C#N [Compound I-281, 2-(1-((R)-2-((S)-2-cyanopropoxy)-2-(2-ethyl-5-fluorophenyl)ethyl)-5-methyl-2,4-dioxo-6-(2H-1,2,3-triazol-2-yl)-1,4-dihydrothieno[2,3-d]pyrimidin-3 (2H)-yl)-N-isopropyl-2-methylpropanamide] | D (<25% control of Asian soybean rust) | AA (≥85% control of wheat septoria leaf blotch) | C (from 25 to 49% control of wheat fusarium head blight) | AA (≥85% control of wheat leaf rust) | 0.08 µg/mL (≈ 0.131 µM) | 0.08 µg/mL (≈ 0.131 µM) | 0.08 µg/mL (≈ 0.131 µM) | 0.08 µg/mL (≈ 0.131 µM) | 2 µg/mL (≈ 3.28 µM) | 0.08 µg/mL (≈ 0.131 µM) | AA (≥85% control of barley powdery mildew) | AA (≥85% control of cucumber powdery mildew) | > 50 µg/mL | > 50 µg/mL
CCc1ccc(F)cc1[C@H](Cn1c(=O)n(C(C)(C)C(=O)NC(C)C)c(=O)c2c(C)c(-n3nccn3)sc21)OC[C@H](C)C#N [Compound I-284, 2-(1-((R)-2-((R)-2-cyanopropoxy)-2-(2-ethyl-5-fluorophenyl)ethyl)-5-methyl-2,4-dioxo-6-(2H-1,2,3-triazol-2-yl)-1,4-dihydrothieno[2,3-d]pyrimidin-3 (2H)-yl)-N-isopropyl-2-methylpropanamide] | B (from 50 to 69% control of Asian soybean rust) | AA (≥85% control of wheat septoria leaf blotch) | C (from 25 to 49% control of wheat fusarium head blight) | AA (≥85% control of wheat leaf rust) | 0.4 µg/mL (≈ 0.656 µM) | 0.08 µg/mL (≈ 0.131 µM) | 0.4 µg/mL (≈ 0.656 µM) | 0.08 µg/mL (≈ 0.131 µM) | 2 µg/mL (≈ 3.28 µM) | 0.08 µg/mL (≈ 0.131 µM) | AA (≥85% control of barley powdery mildew) | AA (≥85% control of cucumber powdery mildew) | > 50 µg/mL | > 50 µg/mL
CCOC(=O)c1sc2c(c1C)c(=O)n(C(C)(C)C(=O)NC(C)C)c(=O)n2C[C@H](OCCS(C)(=O)=O)c1cc(F)ccc1OC [Compound I-285, (R)-ethyl-1-(2-(5-fluoro-2-methoxyphenyl)-2-(2-(methylsulfonyl)ethoxy)ethyl)-3-(1-(isopropylamino)-2-methyl-1-oxopropan-2-yl)-5-methyl-2,4-dioxo-1,2,3,4-tetrahydrothieno[2,3-d]pyrimidine-6-carboxylate] | C (from 25 to 49% control of Asian soybean rust) | C (from 25 to 49% control of wheat septoria leaf blotch) | C (from 25 to 49% control of wheat fusarium head blight) | AA (≥85% control of wheat leaf rust) | 2 µg/mL (≈ 3.05 µM) | 0.4 µg/mL (≈ 0.61 µM) | 2 µg/mL (≈ 3.05 µM) | 0.4 µg/mL (≈ 0.61 µM) | ≥ 2 µg/mL | 0.4 µg/mL (≈ 0.61 µM) | A (from 70% to 84% control of barley powdery mildew) | AA (≥85% control of cucumber powdery mildew) | ≥ 50 µg/mL | 50 µg/mL (≈ 76.2 µM)
COc1ccc(F)cc1[C@H](Cn1c(=O)n(C(C)(C)C(=O)NC(C)C)c(=O)c2c(C)c(-n3nccn3)sc21)OCCS(C)(=O)=O [Compound I-287, (R)-2-(1-(2-(5-fluoro-2-methoxyphenyl)-2-(2-(methylsulfonyl)ethoxy)ethyl)-5-methyl-2,4-dioxo-6-(2H-1,2,3-triazol-2-yl)-1,4-dihydrothieno[2,3-d]pyrimidin-3 (2H)-yl)-N-isopropyl-2-methylpropanamide] | AA (≥85% control of Asian soybean rust) | AA (≥85% control of wheat septoria leaf blotch) | C (from 25 to 49% control of wheat fusarium head blight) | AA (≥85% control of wheat leaf rust) | 2 µg/mL (≈ 3.07 µM) | 0.4 µg/mL (≈ 0.615 µM) | 2 µg/mL (≈ 3.07 µM) | 0.08 µg/mL (≈ 0.123 µM) | 0.4 µg/mL (≈ 0.615 µM) | 0.4 µg/mL (≈ 0.615 µM) | AA (≥85% control of barley powdery mildew) | AA (≥85% control of cucumber powdery mildew) | ≥ 50 µg/mL | 10 µg/mL (≈ 15.4 µM)
